The values that follow come from patent US9719191B2, “Methods for identifying ligands that target nucleic acid molecules and nucleic acid structural motifs” (The Research Foundation for The State University of New York, priority 2006, dated 2017).

Like-named read-outs stand apart in the source and are kept apart here.

For data set [1], the system named is oligonucleotide mimic of the bacterial rRNA A-site. As to conditions: 6′ NH2 acetylated; cited from earlier work.
For a further data set, the system named is IL 7. As to conditions: RNase A and S1 nuclease, compound 0, 0.1, 1, 10, 100 μM. How it is done: (§1) The binding site of 2 was determined by enzymatic probing of IL 7 and R4 in the presence or absence of 2 with RNase A and S1 nuclease.
(§2) The binding site(s) of 2 was determined using a nuclease protection assay. For RNase A mapping experiments, radiolabeled oligonucleotide was annealed as described above. After slow cooling, serially diluted concentrations of 2 were added, and the resulting solution was allowed to equilibrate for 30 min at RT. Approximately 6 μunits of RNase A were added, and the reaction was allowed to proceed for 10 min. The reaction was quenched by addition of an equal volume of stop buffer, and the products were separated on a denaturing 17% polyacrylamide gel.
(§3) For S1 nuclease mapping experiments, the radiolabeled oligonucleotide was annealed as described except the buffer used was 50 mM sodium acetate (pH 4.5), 280 mM NaCl, and 4.5 mM ZnSO4. The solution was allowed to equilibrate for 30 min at RT after the addition of serially diluted concentrations of 2, and then 10 units of S1 were added. The reaction was quenched after 10 min at RT, and the products were separated on a denaturing 17% polyacrylamide gel.

A further data set concerns hairpin cassette R4. As to conditions: RNase A and S1 nuclease, compound 0, 0.1, 1, 10, 100 μM. How it is done:
as §1, §2, §3

For the next data set, the system named is IL 16. As to conditions: in presence of 2. How it is done:
as §1

A further data set deals with IL 1. As to conditions: in presence of 2. How it is done:
as §1

In data set [2] the target is pool of RNAs harvested from position 1+. Nature of the data set: Fluorescence-based direct binding assay with 21-FL. As to conditions: higher ligand loading position 1+.
Data set [3] concerns the target pool of RNAs harvested from position 2+. Kind of data set: Fluorescence-based direct binding assay with 21-FL. The conditions noted are these: lower ligand loading position 2+.
For data set [4], the target named is RNA internal loop library 22. Nature of the data set: Fluorescence-based direct binding assay with 21-FL. As to conditions: entire library.
For data set [5], the target named is chase oligonucleotide 23 (stem mimic duplex). Nature of the data set: Fluorescence-based direct binding assay with 21-FL. The conditions noted are these: no change in fluorescence intensity up to 5 μM.
In data set [6] the target is chase oligonucleotide 24 (GAAA hairpin mimic). Nature of the data set: Fluorescence-based direct binding assay with 21-FL. As to conditions: no change in fluorescence intensity up to 5 μM.
In data set [7] the target is DNA chase oligonucleotides 25+26. Kind of data set: Fluorescence-based direct binding assay with 21-FL. As to conditions: no change in fluorescence intensity up to 5 μM.
Another data set concerns the target empty cassette RNA 27. Nature of the data set: Fluorescence-based direct binding assay with 21-FL.
For a further data set, the target named is tRNAphe. Nature of the data set: Fluorescence-based direct binding assay with 21-FL.
A further data set has as its target IL 34. Kind of data set: Competitive binding assay against 21-FL. The conditions noted are these: competition with 10 nM 21-FL, 75 nM IL 34. How it is done: (§4) To determine if selected loops have aminoglycoside preferences, the binding of five aminoglycosides, 21, kanamycin A, kanamycin B, tobramycin, and neamine (FIG. 7) to the pool of RNAs from spot 2+ (FIG. 10C) was probed using a competitive binding assay. […] We also tested a single RNA sequence identified to bind 21, IL 34, in the same manner.
(§5) A solution containing 75 nM IL 34 was refolded in 1× hybridization buffer+40 μg/mL BSA at 60° C. for 5 min. After slow cooling on the benchtop, 21-FL was added to a final concentration of 10 nM. The competing, unlabeled aminoglycoside was then added, and the resulting solution was serially diluted into 1× hybridization buffer+40 μg/mL BSA+10 nM 21-FL containing 75 nM IL 34. The solutions were equilibrated for 30 min at RT, and the fluorescence intensities were measured on a Bio-Tek HT fluorescence plate reader.

The target in data set [8] is pool of RNAs from spot 2+. Nature of the data set: Competitive binding assay against 21-FL. As to conditions: for Kd: competition with 10 nM 21-FL. How it is done: as §4, §5
The subject of data set [9] is RNA internal loop library 22. As to conditions: chase oligonucleotides 23-26 in excess.
The subject of data set [10] is RNA 3×3 internal loop library (R1). Nature of the data set: Resin-based selection of RNA internal loops with immobilized kanamycin A. The conditions noted are these: based on initial radioactivity eluted with kanamycin A; about 150 members. In kind it is binding. How it is done: Selections were completed by incubating a solution that contained 5′ end ^32P-labeled R1 in buffer with resin-immobilized kanamycin A. In addition to R1, a variety of other oligonucleotides were added to the incubation solution (R2-R4, D1, D2). […] The small number may be due to the manner in which the ligand was immobilized onto the resin (impairs the 6′ amino group from forming stabilizing contacts with RNA).
Each of the oligonucleotides was refolded separately in Hybridization Buffer (“HB”) containing 8 mM […] pH 7.0, 1 mM EDTA, and 185 mM NaCl by heating for 5 min at 65° C. and then cooling to RT on the benchtop. Oligonucleotides were then transferred to 4° C. and mixed together. Before the oligonucleotides were hybridized with the resin, 200 μg of BSA was added to the samples. Each selection experiment was completed with 10 picomoles of 5′-end labeled R1 and 20-fold higher concentration of each control oligonucleotide (R2-R4, D1, D2) over the concentration of R1.
A 100 μL aliquot of resin slurry (10 μL of resin) was placed into a 2.5 mL BioRad column and washed 3× with 1 mL of 4° C. HB. […] At this stage, liquid scintillation counting was used to ensure that only background radioactivity was being eluted from the column. […]

The target in data set [11] is 1×1 CC internal loop derived from the untranslated region in thymidylate synthase mRNA. As to conditions: 1 mM MgCl2 and CaCl2, 150 mM NaCl, 5 mM KCl, 20 mM HEPES (pH 7.5); read-out: dissociation constant; cited from earlier work.
The subject of data set [12] is immobilized 6′-N-5-hexynoate kanamycin A (2) / radiolabeled IL 7. Nature of the data set: Array-based competitive binding assay: competitor RNA against trace 32P-labeled IL 7 on immobilized 2. As to conditions: for IC50: read-out: IC50 (concentration of competitor that inhibited 50% of the binding of radioactively labeled IL 7), competitor RNA, immobilized 2 in microwells, 30 min at RT. An excerpt:
Typically microarray experiments can be used to probe the binding of a variety of small molecules to a single or a few analytes at once. In order to increase the number of conditions that can be probed on a single array, we affixed a silicon gasket that created 50 microwells on the surface of each chip (FIG. 5A). These microwells converted the array into a miniaturized 50-well plate that is easily functionalized to display kanamycin. Compound 2 was immobilized in each microwell at a constant concentration. Binding experiments were completed by delivering 10 μL of a solution containing serially diluted concentrations of the internal loop of interest and trace 5′end ^32P labeled IL 7 into each microwell. Dose response curves were constructed and fit to determine the concentration of competitor that inhibited 50% of the binding of the radioactively labeled RNA (FIG. 3, FIG. 5B, and FIG. 5C). FIG. 5B is a representative autoradiogram for binding selected RNAs relative to binding of control oligonucleotides R2, R3, D1 and D2, and R4, the cassette without an internal loop.
In order to determine which concentration of 2 was optimal for competitive binding assays, serially diluted 2 was applied to the chip surface and allowed to react for 2 h at RT inside the microwell of a silicon gasket (GRACE Biolabs, CWCS 50R-1.0, C-24780) (FIG. 5A). Each of the wells was washed twice with water, and the slide was dried in air. The 5′ end ^32P radiolabeled IL 7 was annealed in 1×HB+40 μg/mL of BSA at 60° C. for 5 min and allowed to slow cool on the benchtop for 10 min. It is important to note that the hybridization buffer contains 1 mM EDTA, or 50 equivalents compared to the amount of Cu^2+ used for the click reaction. […] The annealed RNA oligonucleotide was hybridized with the chip surface for 30 min at RT. […]
IC50's were determined by incubating serially diluted competitor RNA and trace radiolabeled IL 7 in microwells formed using a silicon gasket. […] The data were quantified using Bio-Rad's QuantityOne software, and the IC50's were determined using SigmaPlot's four-parameter logistical curve fit.

[13] abbreviates: listed as 6′ hexynoate kanamycin A.

In the case of `CC(=O)NCC1OC(OC2C(N)CC(N)C(OC3OC(CO)C(O)C(N)C3O)C2O)C(O)C(O)C1O` (stereo not drawn) [6′ acetylated kanamycin A], the “reduction in binding relative to the parent aminoglycoside” value in data set [1] is reported as “several orders of magnitude”.

On to `C#CCCCC(=O)NC[C@@H]1O[C@@H](O[C@H]2[C@H](O)[C@@H](O[C@@H]3O[C@@H](CO)[C@H](O)[C@@H](N)[C@@H]3O)[C@H](N)C[C@@H]2N)[C@@H](O)[C@H](O)[C@H]1O` [Compound 21, 6′-N-5-hexynoate kanamycin A], for which the “nucleotides protected from cleavage” value in the data set on IL 7 (listed as 2) was “only nucleotides in the loop and the surrounding base pairs in IL 7 are protected from cleavage”; in the data set on IL 7 (setting [13]) it was “occurs only in the randomized regions”; with hairpin cassette R4 (listed as 2) it was “No nucleotides in the cassette R4 are protected”; in the data set on hairpin cassette R4 (setting [13]) it was “no nucleotides are protected from modification”. Besides, the “DEPC modification of loop nucleotides” value in the data set with IL 16 and in the data set with IL 1 was “decreased modification” in each case. For the same compound, the Kd in [2] is 65 nM; in [3] it was 11 nM; in data set [4], 280 nM; in [5] it was over 5000 nM; in data set [6], over 5000 nM; in data set [7], over 5000 nM. Moreover, the Kd was found to be 1300 nM on empty cassette RNA 27, 700 nM at tRNAphe, 7 nM on IL 34 (read-out: Kd) and 12 nM in data set [8]. In addition, the “binding of library members on the array” value in [9] is “concentration-dependent binding”.

Regarding `NC[C@H]1O[C@H](O[C@H]2[C@H](O)[C@@H](O[C@H]3O[C@H](CO)[C@@H](O)[C@H](N)[C@H]3O)[C@H](N)C[C@@H]2N)[C@H](O)[C@@H](O)[C@@H]1O` [kanamycin A], the “percentage of the 4096-member library bound to immobilized ligand” value in data set [10] is about 4%. Also, the Kd at IL 34 (read-out: Kd) turned out to be 5 nM; in [8], 9 nM.

With `NC[C@H]1O[C@H](O[C@H]2[C@H](O)[C@@H](O[C@H]3O[C@H](CO)[C@@H](O)[C@H](N)[C@H]3O)[C@H](N)C[C@@H]2N)[C@H](N)[C@@H](O)[C@@H]1O` [kanamycin B], the Kd on IL 34 (read-out: Kd) is 5 nM; in data set [8], 12 nM; in data set [11], 1100 nM.

`NC[C@H]1O[C@H](O[C@H]2[C@H](O)[C@@H](O)[C@H](N)C[C@@H]2N)[C@H](N)[C@@H](O)[C@@H]1O` [neamine]: the Kd result at IL 34 is “much weaker”; in data set [8] it was over 500 nM.

As for `NC[C@H]1O[C@H](O[C@H]2[C@H](O)[C@@H](O[C@H]3O[C@H](CO)[C@@H](O)[C@H](N)[C@H]3O)[C@H](N)C[C@@H]2N)[C@H](N)C[C@@H]1O` [tobramycin], the results for the Kd result (on IL 34; in data set [8]; in data set [11]) were “much weaker”, 85 nM and 870 nM, respectively. Further, the fold weaker binding result in data set [8] (relative to 21, kanamycin A and kanamycin B) was “approximately 9 fold”.

Take “IL 1: selected RNA internal loop (SEQ ID NO:12), 5′UU/3′UC 2×2 loop closed by A-U pairs (GGGAGAGGGUUUAAUUUUUACGAAAGUAACUAUUGGAUCCGCAAGG; listed as RNA, chemistry not given here)”: the IC50 in data set [12] worked out at 2.2 nM.

Take “IL 2: selected RNA internal loop (SEQ ID NO:13), 5′UU/3′UC 2×2 loop, one closing A-U pair in different orientation (GGGAGAGGGUUUAAUAUCUACGAAAGUAUUUAUUGGAUCCGCAAGG; listed as RNA, chemistry not given here)”: the IC50 in [12] is 3.3 nM.

Regarding “IL 17: selected RNA internal loop (SEQ ID NO:14 series; SEQ ID NO:28), U replaced with C and closing pair GC (GGGAGAGGGUUUAAUCUUUACGAAAGUACCGAUUGGAUCCGCAAGG; listed as RNA, chemistry not given here)”, the “fold weaker binding relative to IL 1 and IL 2” value in data set [12] is given as about 10 fold.
